# Test results from publication PMC5962642, “Dynamic imaging of adaptive stress response pathway activation for prediction of drug induced liver injury” (Archives of Toxicology, 2018).
# Entries after “also recorded” stand apart in the source; their conditions may differ.
# How the values were obtained:
# [1] = system: p21-GFP (p53-mediated DNA damage-related response); assay: HepG2 p21-GFP BAC reporter, live cell confocal imaging (DNA damage); type: cell-based, Human; settings: 24 h live imaging, 1-100 C-max
# Method: (§1) Human hepatoma HepG2 cells were acquired from ATCC (clone HB8065). HepG2 Srxn1, DDIT3 (CHOP), CDKN1A (p21) and ICAM1 BAC GFP reporter cell lines were previously established and characterized (Wink et al. [2017]). HepG2 BAC GFP reporters were maintained and exposed to drugs in DMEM high glucose supplemented with 10% (v/v) FBS, 25 U/mL penicillin and 25 µg/mL streptomycin. The cell lines were used between passage 5 and 25. For live cell imaging, the cells were seeded in Greiner black µ-clear 384 wells plates, at 8000 cells per well.
# Accumulation of GFP levels, propodium iodide (PI) and Hoechst staining was monitored using a Nikon TiE2000 confocal laser microscope (lasers 540, 488 and 408 nm), equipped with an automated stage and perfect focus system at 37 °C with humidified atmosphere and 5% CO2/air mixture. All imaging was similar as previously described^5. […]
# Quantitative image analysis was performed with CellProfiler version 2.1.1 (Kamentsky et al. [2011]) with an in house developed CellProfiler module implementing the watershed masked algorithm for segmentation (Yan and Verbeek [2012]; Wink et al. [2017]). […] For each reporter hourly intensity levels of the GFP signal, the nuclear Hoechst33342 intensity levels and at 24 h the PI staining were measured at the single cell level. In addition, cell numbers, nuclei size and cell motility were measured.
# GFP intensity cell population means were calculated. In addition, for each plate the cell population mean GFP intensity of the DMSO treated cells was calculated to determine background control values. Per plate, the single cells that had values above the 2X mean, 3X mean were counted resulting in GFP positive fraction measures. For ICAM1, the background control values consisted of DMSO conditions treated with TNFα, and the single cells with values above, as well as below background values were counted. […]
# [2] = system: ICAM1-GFP (NF-κB-mediated inflammatory signaling); assay: HepG2 ICAM1-GFP BAC reporter, TNFα-induced, live cell confocal imaging; type: cell-based, Human; settings: for modulation of TNFα-induced ICAM1-GFP response: HepG2 BAC-GFP, 8 h compound then TNFα 10 ng/mL, 24 h live imaging, 1-100 C-max
# Method: Human hepatoma HepG2 cells were acquired from ATCC (clone HB8065). HepG2 Srxn1, DDIT3 (CHOP), CDKN1A (p21) and ICAM1 BAC GFP reporter cell lines were previously established and characterized (Wink et al. [2017]). […] The cell lines were used between passage 5 and 25. For live cell imaging, the cells were seeded in Greiner black μ-clear 384 wells plates, at 8000 cells per well. […] All imaging was similar as previously described^5. […] Directly after TNFα treatment the live cell imaging was started. Quantitative image analysis was performed with CellProfiler version 2.1.1 ([…] et al. [2011]) with an in house developed CellProfiler module implementing the watershed masked algorithm for segmentation (Yan and Verbeek [2012]; Wink et al. [2017]). Image analysis results were stored as HDF5 files. Data analysis, quality control and graphics were performed using the in house developed R package h5CellProfiler (manuscript in preparation). For each reporter hourly intensity levels of the GFP signal, the nuclear Hoechst33342 intensity levels and at 24 h the PI staining were measured at the single cell level. In addition, cell numbers, nuclei size and cell motility were measured. GFP intensity cell population means were calculated. In addition, for each plate the cell population mean GFP intensity of the DMSO treated cells was calculated to determine background control values. Per plate, the single cells that had values above the 2X mean, 3X mean were counted resulting in GFP positive fraction measures. For ICAM1, the background control values consisted of DMSO conditions treated with TNFα, and the single cells with values above, as well as below background values were counted. […] Linear regression was applied with respect to time to quantify treatment effects on a plate-to-plate basis to quantify cell speed, nuclear size, Hoechst nuclear intensity and cell numbers. […] The maximum values over time of the scaled intensity levels and positive GFP fractions were selected for the concentration response curves. These values were fit to a four parameter log-logistic model using the drc package (Ritz et al. [2015]). BMC values were calculated as the concentration at which + 0.25 (and - 0.25 for ICAM1) absolute increase from the initial response values occurred (Fig. 5a).
# [3] = C-max obtained from FDA or literature; ref per compound (FDA, Dailymed, Xu, O’Brien, Khetani, Regenthal, Gustafsson, Dawson, Ogutu, Patel, Schmidt, Ravic, Keisu, Hu, Wagner); cited from earlier work
# [4] = system: CHOP-GFP (ER stress/UPR response); assay: HepG2 CHOP-GFP BAC reporter, live cell confocal imaging (ER stress/UPR); type: cell-based, Human; settings: HepG2 BAC-GFP, 24 h live imaging, 1-100 C-max
# Method: Image analysis results were stored as HDF5 files. […] For each reporter hourly intensity levels of the GFP signal, the nuclear Hoechst33342 intensity levels and at 24 h the PI staining were measured at the single cell level. In addition, cell numbers, nuclei size and cell motility were measured.
# The maximum values over time of the scaled intensity levels and positive GFP fractions were selected for the concentration response curves. […] BMC values were calculated as the concentration at which + 0.25 (and − 0.25 for ICAM1) absolute increase from the initial response values occurred (Fig. 5a).
# [5] = ref Chen et al. [2016], cited from earlier work
# [6] = system: Srxn1-GFP (oxidative stress); assay: HepG2 Srxn1-GFP BAC reporter, live cell confocal imaging (oxidative stress); type: cell-based, Human; settings: HepG2 BAC-GFP, 24 h live imaging, 1-100 C-max
# Method: as §1
# Accumulation of GFP levels, propodium iodide (PI) and Hoechst staining was monitored using a Nikon TiE2000 confocal laser microscope (lasers 540, 488 and 408 nm), equipped with an automated stage and perfect focus system at 37 °C with humidified atmosphere and 5% CO2/air mixture. All imaging was similar as previously described^5. Each 384-well plate contained one reporter cell line, which was exposed to all the compounds used in the screen at one certain concentration (1, 5, 10, 50 or 100 Cmax); for each concentration at least two replicates were imaged per reporter cell line. For the ICAM1-GFP reporter experiments, cells were first exposed for 8 h to compound only; next, TNFα was added to all wells, up to a final concentration of 10 ng/mL. Directly after TNFα treatment the live cell imaging was started.
# Quantitative image analysis was performed with CellProfiler version 2.1.1 (Kamentsky et al. [2011]) with an in house developed CellProfiler module implementing the watershed masked algorithm for segmentation (Yan and Verbeek [2012]; Wink et al. [2017]). Image analysis results were stored as HDF5 files. Data analysis, quality control and graphics were performed using the in house developed R package h5CellProfiler (manuscript in preparation). For each reporter hourly intensity levels of the GFP signal, the nuclear Hoechst33342 intensity levels and at 24 h the PI staining were measured at the single cell level. In addition, cell numbers, nuclei size and cell motility were measured.
# GFP intensity cell population means were calculated. In addition, for each plate the cell population mean GFP intensity of the DMSO treated cells was calculated to determine background control values. Per plate, the single cells that had values above the 2X mean, 3X mean were counted resulting in GFP positive fraction measures. For ICAM1, the background control values consisted of DMSO conditions treated with TNFα, and the single cells with values above, as well as below background values were counted. Due to the non-symmetric distribution of ICAM1 cell population GFP intensities, the interquartile range (IQR) was used to count the number of cells 1.5, 2 and 3 times above and below the TNFα IQR control values (Supplemental Fig. 1).
# The maximum values over time of the scaled intensity levels and positive GFP fractions were selected for the concentration response curves. These values were fit to a four parameter log-logistic model using the drc package (Ritz et al. [2015]). BMC values were calculated as the concentration at which + 0.25 (and − 0.25 for ICAM1) absolute increase from the initial response values occurred (Fig. 5a).
# [7] = ref livertox.nih.gov database; cited from earlier work
smiles,measurement,setting,value
Sc1ncnc2nc[nH]c12 [Mercaptopurine],p21-GFP reporter response,[1],increased
same,modulation of TNFα-induced ICAM1-GFP response,[2],increased
same,modulation of TNFα-induced ICAM1-GFP response,[2]; listed as mercaptopurine,relatively strong activation; also recorded: mild Srxn1-GFP and ICAM1-GFP activation
same,point-of-departure (PoD) for ICAM-GFP response relative to onset of SRXN1-GFP response,"[2]; peak response, concentration series 1-100 C-max",at a lower C-max
same,Cmax,[3],480 nM
same,CHOP-GFP reporter response,[4],increased
same,DILI con. (DILI-concern labeling),[5]; FDA DILI labeling,Most-DC
same,Hepa. (hepatotoxicity class),[5]; FDA labeling in eight classes of hepatotoxicity,8
same,Srxn1-GFP reporter response,[6],increased
same,Srxn1-GFP reporter response,[6]; listed as mercaptopurine,relatively strong activation; also recorded: mild Srxn1-GFP and ICAM1-GFP activation
same,Metab (metabolic potential),[7],YES
